Results published in PubChem BioAssay AID2060614 (Molecular Pharmacology Branch, DTP, NCI, 2025).
“And” between values parts separate entries of the source, which are not always exact repeats. Identical values can stand only once.

System: 598228-144-R-J1-PDC complex spheroids, viability
Assay: Anticancer human tumor 598228-144-R-J1-PDC patient-derived serous endometrial adenocarcinoma cell line growth inhibition [CLK]
Conditions: for viability, T/C: stronger effect = lower value
Outline: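 Multi-cell-type spheroids combined patient-derived tumor cells with HUVEC endothelial cells and human mesenchymal stem cells. Paired agents were dosed in half-log steps down from about clinical Cmax, or from 10 microM where Cmax was unknown.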

[1] = curve of first compound, second compound 0.0316 µM
[2] = curve of first compound, second compound 0.1 µM
[3] = curve of first compound, second compound 0.316 µM
[4] = curve of first compound, second compound 1 µM
[5] = curve of first compound, second compound 3.16 µM
[6] = curve of first compound, second compound 10 µM
[7] = second compound 0.0316 µM, first compound 0.0316 µM
[8] = second compound 0.0316 µM, first compound 0.1 µM
[9] = second compound 0.0316 µM, first compound 0.316 µM
[10] = second compound 0.0316 µM, first compound 1 µM
[11] = second compound 0.0316 µM, first compound 3.16 µM
[12] = second compound 0.0316 µM, first compound 10 µM
[13] = second compound 0.1 µM, first compound 0.0316 µM
[14] = second compound 0.1 µM, first compound 0.1 µM
[15] = second compound 0.1 µM, first compound 0.316 µM
[16] = second compound 0.1 µM, first compound 1 µM
[17] = second compound 0.1 µM, first compound 3.16 µM
[18] = second compound 0.1 µM, first compound 10 µM
[19] = second compound 0.316 µM, first compound 0.0316 µM
[20] = second compound 0.316 µM, first compound 0.1 µM
[21] = second compound 0.316 µM, first compound 0.316 µM
[22] = second compound 0.316 µM, first compound 1 µM
[23] = second compound 0.316 µM, first compound 3.16 µM
[24] = second compound 0.316 µM, first compound 10 µM
[25] = second compound 1 µM, first compound 0.0316 µM
[26] = second compound 1 µM, first compound 0.1 µM
[27] = second compound 1 µM, first compound 0.316 µM
[28] = second compound 1 µM, first compound 1 µM
[29] = second compound 1 µM, first compound 3.16 µM
[30] = second compound 1 µM, first compound 10 µM
[31] = second compound 3.16 µM, first compound 0.0316 µM
[32] = second compound 3.16 µM, first compound 0.1 µM
[33] = second compound 3.16 µM, first compound 0.316 µM
[34] = second compound 3.16 µM, first compound 1 µM
[35] = second compound 3.16 µM, first compound 3.16 µM
[36] = second compound 3.16 µM, first compound 10 µM
[37] = second compound 10 µM, first compound 0.0316 µM
[38] = second compound 10 µM, first compound 0.1 µM
[39] = second compound 10 µM, first compound 0.316 µM
[40] = second compound 10 µM, first compound 1 µM
[41] = second compound 10 µM, first compound 3.16 µM
[42] = second compound 10 µM, first compound 10 µM
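Also: spheroids exposed to compounds for seven days before readout.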
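For viability, T/C in this document: 100% = DMSO vehicle control wells.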

## COC1C=CCC(C)C(C)S(=O)(=O)NC(=O)c2ccc3c(c2)N(CC2CCC21)CC1(CCCc2cc(Cl)ccc21)CO3 (centres undefined) + CN1CCN(c2cc(C(=O)Nc3cc4cc(-c5cnn(C)c5)ccc4cn3)ccn2)CC1
[1]
  IC50: 4.71 µM
[2]
  IC50: 5.35 µM
[3]
  IC50: < 0.0316 µM
[4]
  IC50: < 0.0316 µM
[5]
  IC50: < 0.0316 µM
[6]
  IC50: < 0.0316 µM
[7]
  viability, T/C: 128%
[8]
  viability, T/C: 107%
[9]
  viability, T/C: 85.1%
[10]
  viability, T/C: 75%
[11]
  viability, T/C: 69.2%
[12]
  viability, T/C: 29.5%
[13]
  viability, T/C: 122%
[14]
  viability, T/C: 111%
[15]
  viability, T/C: 86%
[16]
  viability, T/C: 76.9%
[17]
  viability, T/C: 65.5%
[18]
  viability, T/C: 36.4%
[19]
  viability, T/C: 15.7%
[20]
  viability, T/C: 18.8%
[21]
  viability, T/C: 16.8%
[22]
  viability, T/C: 16.6%
[23]
  viability, T/C: 20.5%
[24]
  viability, T/C: 18.9%
[25]
  viability, T/C: 1.74%
[26]
  viability, T/C: 1.81%
[27]
  viability, T/C: 3.02%
[28]
  viability, T/C: 1.14%
[29]
  viability, T/C: 1.71%
[30]
  viability, T/C: 4.93%
[31]
  viability, T/C: 1.85%
[32]
  viability, T/C: 3.92%
[33]
  viability, T/C: 1.47%
[34]
  viability, T/C: 1.24%
[35]
  viability, T/C: 2.51%
[36]
  viability, T/C: 3.08%
[37]
  viability, T/C: 0.94%
[38]
  viability, T/C: 0.82%
[39]
  viability, T/C: 0.72%
[40]
  viability, T/C: 0.85%
[41]
  viability, T/C: 2.37%
[42]
  viability, T/C: 3.73%

## CN1CCN(c2cc(C(=O)Nc3cc4cc(-c5cnn(C)c5)ccc4cn3)ccn2)CC1
Compound 0.316 µM
  viability, T/C: 17.4% [middle of 11 runs]
Compound 1 µM
  viability, T/C: 3.28% [middle of 12 runs]
Compound 3.16 µM
  viability, T/C: 2.39% [middle of 11 runs]
Compound 10 µM
  viability, T/C: 1% [middle of 11 runs]
Compound alone, run of 09/18/2023
  IC50: 216 nM [middle of 10 runs]

## O=C(c1cc(Cc2n[nH]c(=O)c3ccccc23)ccc1F)N1CCN(C(=O)C2CC2)CC1 + CN1CCN(c2cc(C(=O)Nc3cc4cc(-c5cnn(C)c5)ccc4cn3)ccn2)CC1
[1]
  IC50: > 10 µM
[2]
  IC50: > 10 µM
[3]
  IC50: < 0.0316 µM
[4]
  IC50: < 0.0316 µM
[5]
  IC50: < 0.0316 µM
[6]
  IC50: < 0.0316 µM
[7]
  viability, T/C: 123%
[8]
  viability, T/C: 120%
[9]
  viability, T/C: 114%
[10]
  viability, T/C: 118%
[11]
  viability, T/C: 116%
[12]
  viability, T/C: 103%
[13]
  viability, T/C: 130%
[14]
  viability, T/C: 119%
[15]
  viability, T/C: 107%
[16]
  viability, T/C: 126%
[17]
  viability, T/C: 125%
[18]
  viability, T/C: 131%
[19]
  viability, T/C: 16.7%
[20]
  viability, T/C: 17.2%
[21]
  viability, T/C: 18.8%
[22]
  viability, T/C: 14.9%
[23]
  viability, T/C: 13.7%
[24]
  viability, T/C: 14.9%
[25]
  viability, T/C: 1.51%
[26]
  viability, T/C: 1.3%
[27]
  viability, T/C: 2.76%
[28]
  viability, T/C: 1.57%
[29]
  viability, T/C: 2.8%
[30]
  viability, T/C: 3.04%
[31]
  viability, T/C: 1.72%
[32]
  viability, T/C: 1.59%
[33]
  viability, T/C: 1.74%
[34]
  viability, T/C: 2.04%
[35]
  viability, T/C: 2.75%
[36]
  viability, T/C: 4.75%
[37]
  viability, T/C: 0.94%
[38]
  viability, T/C: 0.9%
[39]
  viability, T/C: 1.84%
[40]
  viability, T/C: 1.05%
[41]
  viability, T/C: 1.89%
[42]
  viability, T/C: 3.42%

## O=C(c1cc(Cc2n[nH]c(=O)c3ccccc23)ccc1F)N1CCN(C(=O)C2CC2)CC1
Compound 0.0316 µM
  viability, T/C: 93.1% and 97.7%
Compound 0.1 µM
  viability, T/C: 87.5% and 104%
Compound 0.316 µM
  viability, T/C: 95.4% and 94.2%
Compound 1 µM
  viability, T/C: 94.4% and 105%
Compound 3.16 µM
  viability, T/C: 97.5% and 103%
Compound 10 µM
  viability, T/C: 88% and 87.2%
Curve of compound
  IC50: > 10 µM

## COc1c(OCCCN2CCOCC2)ccc2c3n(c(=NC(=O)c4cnc(N)nc4)nc12)CCN3
Compound 0.00316 µM
  viability, T/C: 80.5% and 77.9%
Compound 0.01 µM
  viability, T/C: 65.1% and 53.3%
Compound 0.0316 µM
  viability, T/C: 52.9% and 45.3%
Compound 0.1 µM
  viability, T/C: 34.8% and 27.9%
Compound 0.316 µM
  viability, T/C: 19.3% and 14.2%
Compound 1 µM
  viability, T/C: 8.63% and 7.29%
Curve of compound
  IC50: 0.0346 µM and 0.0175 µM

## CC1COCCN1c1cc(C2(S(C)(=N)=O)CC2)nc(-c2ccnc3[nH]ccc23)n1 (centres undefined)
Compound 0.0316 µM
  viability, T/C: 96.7% and 86.2%
Compound 0.1 µM
  viability, T/C: 110% and 86.8%
Compound 0.316 µM
  viability, T/C: 98.8% and 87.7%
Compound 1 µM
  viability, T/C: 72.7% and 79%
Compound 3.16 µM
  viability, T/C: 58.1% and 61.5%
Compound 10 µM
  viability, T/C: 34.3% and 34.9%
Curve of compound
  IC50: 4.04 µM and 5.18 µM

## CC1(C)CCC(CN2CCN(c3ccc(C(=O)NS(=O)(=O)c4ccc(NCC5CCOCC5)c([N+](=O)[O-])c4)c(Oc4cnc5[nH]ccc5c4)c3)CC2)=C(c2ccc(Cl)cc2)C1 + CNC(=O)c1ccc(Nc2nc(OC3CCCC3)c3c(-c4ccc5nc(C)oc5c4)c[nH]c3n2)c(OC)c1
[1]
  IC50: 7.05 µM
[2]
  IC50: 6.44 µM
[3]
  IC50: 6.42 µM
[4]
  IC50: 6.64 µM
[5]
  IC50: 6.11 µM
[6]
  IC50: 6.42 µM
[7]
  viability, T/C: 96.4%
[8]
  viability, T/C: 116%
[9]
  viability, T/C: 105%
[10]
  viability, T/C: 96.5%
[11]
  viability, T/C: 100%
[12]
  viability, T/C: 28.1%
[13]
  viability, T/C: 105%
[14]
  viability, T/C: 97.6%
[15]
  viability, T/C: 103%
[16]
  viability, T/C: 99.4%
[17]
  viability, T/C: 99.4%
[18]
  viability, T/C: 19.5%
[19]
  viability, T/C: 106%
[20]
  viability, T/C: 104%
[21]
  viability, T/C: 98.5%
[22]
  viability, T/C: 103%
[23]
  viability, T/C: 105%
[24]
  viability, T/C: 16.6%
[25]
  viability, T/C: 106%
[26]
  viability, T/C: 99.9%
[27]
  viability, T/C: 96.5%
[28]
  viability, T/C: 95.4%
[29]
  viability, T/C: 99.2%
[30]
  viability, T/C: 22.8%
[31]
  viability, T/C: 99.1%
[32]
  viability, T/C: 91.1%
[33]
  viability, T/C: 79.9%
[34]
  viability, T/C: 84.3%
[35]
  viability, T/C: 89.3%
[36]
  viability, T/C: 21%
[37]
  viability, T/C: 86.3%
[38]
  viability, T/C: 89%
[39]
  viability, T/C: 83.3%
[40]
  viability, T/C: 81.2%
[41]
  viability, T/C: 97.6%
[42]
  viability, T/C: 26.6%

## O=C(c1cc(Cc2n[nH]c(=O)c3ccccc23)ccc1F)N1CCN(C(=O)C2CC2)CC1 + CNC(=O)c1ccc(Nc2nc(OC3CCCC3)c3c(-c4ccc5nc(C)oc5c4)c[nH]c3n2)c(OC)c1
[1]
  IC50: > 10 µM
[2]
  IC50: > 10 µM
[3]
  IC50: > 10 µM
[4]
  IC50: > 10 µM
[5]
  IC50: > 10 µM
[6]
  IC50: > 10 µM
[7]
  viability, T/C: 112%
[8]
  viability, T/C: 125%
[9]
  viability, T/C: 115%
[10]
  viability, T/C: 129%
[11]
  viability, T/C: 124%
[12]
  viability, T/C: 113%
[13]
  viability, T/C: 129%
[14]
  viability, T/C: 127%
[15]
  viability, T/C: 106%
[16]
  viability, T/C: 129%
[17]
  viability, T/C: 127%
[18]
  viability, T/C: 105%
[19]
  viability, T/C: 112%
[20]
  viability, T/C: 130%
[21]
  viability, T/C: 111%
[22]
  viability, T/C: 118%
[23]
  viability, T/C: 117%
[24]
  viability, T/C: 113%
[25]
  viability, T/C: 121%
[26]
  viability, T/C: 101%
[27]
  viability, T/C: 99%
[28]
  viability, T/C: 115%
[29]
  viability, T/C: 123%
[30]
  viability, T/C: 94%
[31]
  viability, T/C: 114%
[32]
  viability, T/C: 102%
[33]
  viability, T/C: 108%
[34]
  viability, T/C: 97.6%
[35]
  viability, T/C: 106%
[36]
  viability, T/C: 117%
[37]
  viability, T/C: 98.5%
[38]
  viability, T/C: 97.8%
[39]
  viability, T/C: 92.6%
[40]
  viability, T/C: 121%
[41]
  viability, T/C: 109%
[42]
  viability, T/C: 104%
